{
  "source": "patent US20090258897A1",
  "about": "“Substituted benzimidazoles” (Auspex Pharmaceuticals, Inc., priority 2008, published 2009)",
  "origin": "cited, not measured here",
  "target": "T1, gastric H^+, K^+-ATPase (Homo sapiens, UniProt P20648)",
  "T1 construct": "host or cells: healthy volunteers (in vivo, endogenous gastric enzyme)",
  "T1 sequence (P20648 whole entry)": "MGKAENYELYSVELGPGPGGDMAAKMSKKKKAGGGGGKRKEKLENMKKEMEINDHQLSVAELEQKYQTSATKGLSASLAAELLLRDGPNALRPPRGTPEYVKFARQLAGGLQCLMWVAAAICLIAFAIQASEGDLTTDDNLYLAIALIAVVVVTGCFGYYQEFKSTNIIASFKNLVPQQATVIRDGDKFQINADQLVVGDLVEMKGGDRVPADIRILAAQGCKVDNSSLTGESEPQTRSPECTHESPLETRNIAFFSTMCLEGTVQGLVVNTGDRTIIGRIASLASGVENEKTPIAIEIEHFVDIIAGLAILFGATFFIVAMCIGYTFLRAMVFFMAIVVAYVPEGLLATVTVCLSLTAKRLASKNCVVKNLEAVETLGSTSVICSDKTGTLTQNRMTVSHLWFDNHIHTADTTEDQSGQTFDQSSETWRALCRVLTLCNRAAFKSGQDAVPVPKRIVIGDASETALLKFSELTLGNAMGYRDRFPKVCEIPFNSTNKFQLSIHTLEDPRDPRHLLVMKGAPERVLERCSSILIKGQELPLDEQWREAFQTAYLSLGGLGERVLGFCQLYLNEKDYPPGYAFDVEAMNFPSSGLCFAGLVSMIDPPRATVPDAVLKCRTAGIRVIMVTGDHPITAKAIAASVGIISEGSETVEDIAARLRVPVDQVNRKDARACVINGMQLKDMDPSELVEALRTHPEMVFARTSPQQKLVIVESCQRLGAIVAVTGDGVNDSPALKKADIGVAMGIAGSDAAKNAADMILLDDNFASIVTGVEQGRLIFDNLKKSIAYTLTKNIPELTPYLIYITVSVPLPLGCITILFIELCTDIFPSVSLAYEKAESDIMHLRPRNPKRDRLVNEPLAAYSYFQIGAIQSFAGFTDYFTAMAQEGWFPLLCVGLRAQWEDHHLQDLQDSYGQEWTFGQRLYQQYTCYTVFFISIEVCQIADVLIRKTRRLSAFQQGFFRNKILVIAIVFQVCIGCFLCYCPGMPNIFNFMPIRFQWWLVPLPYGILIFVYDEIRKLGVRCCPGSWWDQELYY",
  "T1 sequence (P51164 whole entry partner)": "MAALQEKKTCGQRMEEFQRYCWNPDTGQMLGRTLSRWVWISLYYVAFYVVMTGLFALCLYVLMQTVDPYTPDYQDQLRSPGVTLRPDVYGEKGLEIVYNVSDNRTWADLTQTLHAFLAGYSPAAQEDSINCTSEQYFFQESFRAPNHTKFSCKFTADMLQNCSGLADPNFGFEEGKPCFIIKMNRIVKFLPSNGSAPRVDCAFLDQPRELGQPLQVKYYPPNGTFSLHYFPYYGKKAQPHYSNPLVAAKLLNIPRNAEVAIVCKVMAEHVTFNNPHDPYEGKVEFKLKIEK",
  "key": {"[1]": {"settings": "healthy volunteers, even after stoppage of the drug"}},
  "data": [
    {"smiles": "COc1ccc2[nH]c([S+]([O-])Cc3ncc(C)c(OC)c3C)nc2n1", "note": "(stereo not drawn) [tenatoprazole, 5-methoxy-2-(4-methoxy-3,5-dimethyl-pyridin-2-ylmethane-sulfinyl)-1H-imidazo[4,5-b]pyridine]", "values": [
      {"measurement": "potency compared to other proton pump inhibitors (PPIs) such as esomeprazole", "setting": "clinical trials", "value": "improved potency"},
      {"measurement": "duration of acid suppression as compared with other PPIs", "setting": "[1]", "value": "prolonged duration of acid suppression"},
      {"measurement": "nocturnal acid breakthrough as compared with other PPIs", "setting": "[1]", "value": "shorter nocturnal acid breakthrough"}
    ]}
  ]
}
